# Data reported in ChEMBL document CHEMBL1139273, “Aryl aminopyrazole benzamides as oral non-steroidal selective glucocorticoid receptor agonists” (Bioorg Med Chem Lett, 2009).
# Columns and labels:
# Glucocorticoid receptor [1] = target: T1, Glucocorticoid receptor (Homo sapiens, UniProt P04150)
# T1 sequence (P04150 whole entry): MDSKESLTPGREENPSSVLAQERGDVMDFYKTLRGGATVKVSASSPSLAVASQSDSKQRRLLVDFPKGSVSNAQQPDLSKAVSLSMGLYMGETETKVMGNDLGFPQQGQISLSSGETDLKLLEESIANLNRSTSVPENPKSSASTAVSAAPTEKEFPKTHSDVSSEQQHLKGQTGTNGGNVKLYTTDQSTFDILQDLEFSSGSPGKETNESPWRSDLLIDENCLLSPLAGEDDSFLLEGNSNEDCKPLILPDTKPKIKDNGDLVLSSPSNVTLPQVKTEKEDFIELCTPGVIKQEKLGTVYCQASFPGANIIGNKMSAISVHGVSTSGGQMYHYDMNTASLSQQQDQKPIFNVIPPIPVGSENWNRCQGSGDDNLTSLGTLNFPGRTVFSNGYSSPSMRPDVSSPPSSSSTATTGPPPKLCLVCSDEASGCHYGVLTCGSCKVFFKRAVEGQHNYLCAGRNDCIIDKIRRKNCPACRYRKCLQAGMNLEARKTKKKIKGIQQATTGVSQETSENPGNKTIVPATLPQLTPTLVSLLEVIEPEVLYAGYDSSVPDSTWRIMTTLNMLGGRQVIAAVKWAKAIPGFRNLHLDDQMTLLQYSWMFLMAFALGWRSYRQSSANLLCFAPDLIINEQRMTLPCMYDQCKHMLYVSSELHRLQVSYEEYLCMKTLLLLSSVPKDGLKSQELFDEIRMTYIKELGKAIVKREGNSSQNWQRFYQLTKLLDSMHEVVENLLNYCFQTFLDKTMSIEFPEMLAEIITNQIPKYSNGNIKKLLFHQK
# Description: Displacement of fluorescent labelled Dexamethasone from glucocorticoid receptor
# Albumin = Albumin (Homo sapiens, UniProt P02768); assay: Binding affinity to human serum albumin by fast gradient HPLC; assay type: ADME; conditions: isolated protein
# Cytochrome P450 2C19 = Cytochrome P450 2C19 (Homo sapiens, UniProt P33261); assay: Inhibition of CYP2C19; assay type: ADME
# A549 = assay: Inhibition of TNF-induced NFkappaB activation in human A549 cells after 15 hrs relative to Dexamethasone; assay type: cell-based; set-up: scale not given: the % may be the effect or the level left
# Cytochrome P450 1A2 = target: T2, Cytochrome P450 1A2 (Homo sapiens, UniProt P05177); assay: Inhibition of CYP1A2; assay type: ADME
# T2 sequence (P05177 whole entry): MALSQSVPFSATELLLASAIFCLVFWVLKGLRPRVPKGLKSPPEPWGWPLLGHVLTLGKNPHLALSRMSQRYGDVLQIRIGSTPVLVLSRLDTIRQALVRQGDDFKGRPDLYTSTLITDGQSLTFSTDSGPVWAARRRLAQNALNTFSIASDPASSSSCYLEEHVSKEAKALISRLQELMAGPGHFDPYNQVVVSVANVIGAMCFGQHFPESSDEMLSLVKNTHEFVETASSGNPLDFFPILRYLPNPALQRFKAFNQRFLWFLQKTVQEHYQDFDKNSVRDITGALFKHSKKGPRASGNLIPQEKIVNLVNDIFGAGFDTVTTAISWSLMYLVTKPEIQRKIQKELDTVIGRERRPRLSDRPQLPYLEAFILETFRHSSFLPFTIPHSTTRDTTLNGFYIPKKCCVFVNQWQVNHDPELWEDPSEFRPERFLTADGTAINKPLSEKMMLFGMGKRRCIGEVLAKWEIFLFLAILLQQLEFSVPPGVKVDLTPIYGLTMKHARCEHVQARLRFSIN
# Cytochrome P450 2C9 = Cytochrome P450 2C9 (Homo sapiens, UniProt P11712); assay: Inhibition of CYP2C9; assay type: ADME
# Glucocorticoid receptor [2] = target: T1, Glucocorticoid receptor; remark: listed apart in the source
# Description: Agonist activity at human glucocorticoid receptor in human A549 cells assessed as transcriptional activity by MMTV luciferase reporter gene assay
# [3] = Inhibition of TNF-induced NF-kappaB activation in human A549 cells after 15 hrs; conditions: for IC50: Homo sapiens, A549, 15 h, read-out: pIC50 (converted); for pIC50: a549
# Cytochrome P450 3A4 = Cytochrome P450 3A4 (Homo sapiens, UniProt P08684)
# [4] = Protein binding in human plasma by ultrafiltration; assay type: ADME, cell-free; conditions: read-out: PPB (converted)
# Cytochrome P450 2D6 = Cytochrome P450 2D6 (Homo sapiens, UniProt P10635); assay: Inhibition of CYP2D6; assay type: ADME
# [5] = Clearance in Sprague-Dawley rat at 1 mg/kg, iv and 1 mg/kg, po; assay type: ADME, organism-based; conditions: in vivo
# [6] = Volume of distribution at steady state in Sprague-Dawley rat at 1 mg/kg, iv and 1 mg/kg, po; assay type: ADME, organism-based; conditions: in vivo, read-out: Vdss
# [7] = Oral bioavailability in Sprague-Dawley rat at 1 mg/kg; assay type: ADME, organism-based; conditions: in vivo
# Sequence of Cytochrome P450 2C9 (P11712 whole entry): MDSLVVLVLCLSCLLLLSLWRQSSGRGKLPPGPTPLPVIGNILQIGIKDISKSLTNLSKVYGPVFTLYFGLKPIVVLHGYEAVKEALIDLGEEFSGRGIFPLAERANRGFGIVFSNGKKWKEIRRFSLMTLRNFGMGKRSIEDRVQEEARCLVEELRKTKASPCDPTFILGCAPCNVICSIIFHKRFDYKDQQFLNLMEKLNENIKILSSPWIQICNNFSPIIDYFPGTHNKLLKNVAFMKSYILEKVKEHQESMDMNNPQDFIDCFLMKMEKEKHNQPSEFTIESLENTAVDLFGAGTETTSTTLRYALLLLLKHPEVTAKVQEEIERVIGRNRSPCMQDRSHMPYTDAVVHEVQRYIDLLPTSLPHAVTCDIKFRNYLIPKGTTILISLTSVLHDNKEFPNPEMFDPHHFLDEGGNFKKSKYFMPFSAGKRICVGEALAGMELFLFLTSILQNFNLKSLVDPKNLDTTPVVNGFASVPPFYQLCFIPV
# Sequence of Cytochrome P450 3A4 (P08684 whole entry): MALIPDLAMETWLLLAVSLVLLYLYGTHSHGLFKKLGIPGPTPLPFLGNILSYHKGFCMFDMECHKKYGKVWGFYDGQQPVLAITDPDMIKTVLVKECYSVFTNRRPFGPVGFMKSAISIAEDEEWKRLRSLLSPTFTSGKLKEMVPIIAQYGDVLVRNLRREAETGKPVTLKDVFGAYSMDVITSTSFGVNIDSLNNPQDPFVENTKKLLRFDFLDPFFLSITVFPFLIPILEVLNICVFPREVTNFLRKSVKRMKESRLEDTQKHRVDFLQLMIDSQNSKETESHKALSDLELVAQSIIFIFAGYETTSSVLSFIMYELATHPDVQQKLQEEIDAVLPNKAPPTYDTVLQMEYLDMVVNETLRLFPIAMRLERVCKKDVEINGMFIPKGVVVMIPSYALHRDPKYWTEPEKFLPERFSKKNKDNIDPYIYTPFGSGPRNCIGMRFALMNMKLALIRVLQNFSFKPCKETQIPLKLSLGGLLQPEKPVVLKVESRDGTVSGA
# Sequence of Cytochrome P450 2D6 (P10635 whole entry): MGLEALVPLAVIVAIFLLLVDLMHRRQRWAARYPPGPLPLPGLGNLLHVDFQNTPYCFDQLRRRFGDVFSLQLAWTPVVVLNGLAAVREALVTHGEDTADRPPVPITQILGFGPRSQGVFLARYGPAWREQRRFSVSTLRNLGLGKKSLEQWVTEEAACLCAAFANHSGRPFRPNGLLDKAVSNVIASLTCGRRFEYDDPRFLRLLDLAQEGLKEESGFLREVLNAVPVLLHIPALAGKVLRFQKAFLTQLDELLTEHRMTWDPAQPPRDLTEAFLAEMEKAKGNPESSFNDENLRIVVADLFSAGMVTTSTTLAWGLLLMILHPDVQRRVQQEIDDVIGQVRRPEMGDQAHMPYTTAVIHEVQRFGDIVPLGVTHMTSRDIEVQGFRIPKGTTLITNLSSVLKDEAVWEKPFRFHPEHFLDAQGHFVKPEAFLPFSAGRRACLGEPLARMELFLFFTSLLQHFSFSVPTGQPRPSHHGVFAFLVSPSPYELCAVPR
# Sequence of Albumin (P02768 whole entry): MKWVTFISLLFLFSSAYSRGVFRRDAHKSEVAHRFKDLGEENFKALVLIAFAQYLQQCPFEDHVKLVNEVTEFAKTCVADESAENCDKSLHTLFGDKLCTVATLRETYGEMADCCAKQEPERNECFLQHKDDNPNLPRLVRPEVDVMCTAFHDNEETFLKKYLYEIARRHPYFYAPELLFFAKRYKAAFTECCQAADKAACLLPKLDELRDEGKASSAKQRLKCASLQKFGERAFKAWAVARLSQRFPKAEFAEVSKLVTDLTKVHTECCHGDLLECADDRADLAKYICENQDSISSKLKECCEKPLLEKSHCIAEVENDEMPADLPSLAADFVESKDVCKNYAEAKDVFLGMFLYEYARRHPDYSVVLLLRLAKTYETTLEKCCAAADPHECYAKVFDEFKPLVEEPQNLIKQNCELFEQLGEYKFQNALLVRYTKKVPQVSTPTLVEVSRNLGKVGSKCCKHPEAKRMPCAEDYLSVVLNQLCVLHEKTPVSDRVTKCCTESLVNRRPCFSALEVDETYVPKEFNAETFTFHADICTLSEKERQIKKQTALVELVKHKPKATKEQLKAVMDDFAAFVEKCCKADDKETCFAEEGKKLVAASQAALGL
# Sequence of Cytochrome P450 2C19 (P33261 whole entry): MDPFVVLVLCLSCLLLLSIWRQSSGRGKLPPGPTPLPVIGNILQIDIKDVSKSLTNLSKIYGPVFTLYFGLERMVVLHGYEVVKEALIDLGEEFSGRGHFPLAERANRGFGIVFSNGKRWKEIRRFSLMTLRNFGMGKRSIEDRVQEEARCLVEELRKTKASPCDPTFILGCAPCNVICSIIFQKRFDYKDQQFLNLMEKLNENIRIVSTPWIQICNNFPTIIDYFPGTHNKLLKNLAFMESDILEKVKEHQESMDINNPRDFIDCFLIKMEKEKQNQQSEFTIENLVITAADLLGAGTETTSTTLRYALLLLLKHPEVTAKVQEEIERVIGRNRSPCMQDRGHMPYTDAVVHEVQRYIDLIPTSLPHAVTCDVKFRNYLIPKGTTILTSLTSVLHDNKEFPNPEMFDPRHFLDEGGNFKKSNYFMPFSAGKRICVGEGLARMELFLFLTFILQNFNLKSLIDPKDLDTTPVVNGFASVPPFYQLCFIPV
Structure (SMILES),IC50 (Glucocorticoid receptor [1]),EC50 (Glucocorticoid receptor [2]),IC50 [3],Activity (A549),also measured
CCN(CC(O)(CNC(=O)c1cnn(-c2ccc(F)cc2)c1N)C(F)(F)F)C(=O)c1c(Cl)cccc1Cl (stereo not given),0.00316 µM,0.002 µM,0.000501 µM,101%,Activity (Albumin): 95%; IC50 (Cytochrome P450 2C19): 7 µM; IC50 (Cytochrome P450 1A2): 100 µM; IC50 (Cytochrome P450 2C9): 0.8 µM; IC50 (Cytochrome P450 3A4): 0.7 µM; fraction unbound [4]: 0.01; IC50 (Cytochrome P450 2D6): 89 µM
CCN(CC(O)(CNC(=O)c1cnn(-c2ccc(F)cc2)c1N)C(F)(F)F)C(=O)c1ccccc1F (stereo not given),0.0126 µM,0.02 µM,0.0126 µM,98%,–
Nc1c(C(=O)NCC(O)(CN(CCO)C(=O)c2c(Cl)cccc2Cl)C(F)(F)F)cnn1-c1ccc(F)cc1 (stereo not given),–,–,–,–,Activity (Albumin): 89%; IC50 (Cytochrome P450 2C19): 20 µM; IC50 (Cytochrome P450 1A2): 100 µM; IC50 (Cytochrome P450 2C9): 3 µM; IC50 (Cytochrome P450 3A4): 100 µM; fraction unbound [4]: 0.07; IC50 (Cytochrome P450 2D6): 54 µM
CCN(CC(O)(CNC(=O)c1cnn(-c2ccc(F)cc2)c1N)C(F)(F)F)C(=O)c1ccc2[nH]ccc2c1 (stereo not given),0.00631 µM,0.00316 µM,0.001 µM,100%,–
CCN(CC(O)(CNC(=O)c1cnn(-c2ccc(F)cc2)c1N)C(F)(F)F)C(=O)c1ccccc1S(C)(=O)=O (stereo not given) [listing 1 of 2 here],0.0631 µM,0.158 µM,0.02 µM,–,Activity (Albumin): 81%; IC50 (Cytochrome P450 2C19): 87 µM; IC50 (Cytochrome P450 1A2): > 40 µM; IC50 (Cytochrome P450 2C9): 23 µM; IC50 (Cytochrome P450 2D6): 96 µM
CCN(CC(O)(CNC(=O)c1cnn(-c2ccc(F)cc2)c1N)C(F)(F)F)C(=O)c1ccccc1S(C)(=O)=O (stereo not given) [listing 2 of 2 here],–,–,–,99%,–
CCN(CC(O)(CNC(=O)c1cnn(-c2ccc(F)cc2)c1N)C(F)(F)F)C(=O)c1ncccc1Cl (stereo not given) [listing 2 of 2 here],–,–,–,99%,–
CCN(CC(O)(CNC(=O)c1cnn(-c2ccc(F)cc2)c1N)C(F)(F)F)C(=O)c1ccc(F)cc1Cl (racemic),0.02 µM,0.316 µM,0.1 µM,76%,–
CCN(CC(O)(CNC(=O)c1cnn(-c2ccc(F)cc2)c1N)C(F)(F)F)C(=O)c1ccc(Cl)cc1 (racemic),0.316 µM,> 6.31 µM,> 10 µM,–,–
CCN(CC(O)(CNC(=O)c1cnn(-c2ccc(F)cc2)c1N)C(F)(F)F)C(=O)c1cccnc1Cl (racemic),0.0398 µM,0.794 µM,0.251 µM,75%,–
CCN(CC(O)(CNC(=O)c1cnn(-c2ccc(F)cc2)c1N)C(F)(F)F)C(=O)c1ccccc1S(C)(=O)=O (racemic),–,–,–,–,clearance [5]: 17 mL/min/kg; Vd [6]: 3.6 L/kg; bioavailability [7]: 77%
CCN(CC(O)(CNC(=O)c1cnn(-c2ccc(F)cc2)c1N)C(F)(F)F)C(=O)c1ccccc1Cl (racemic),–,–,–,–,clearance [5]: 32 mL/min/kg; Vd [6]: 4 L/kg; bioavailability [7]: 25%
CCN(CC(O)(CNC(=O)c1cnn(-c2ccc(F)cc2)c1N)C(F)(F)F)C(=O)c1ncccc1Cl (racemic),–,–,–,–,clearance [5]: 23 mL/min/kg; Vd [6]: 2.8 L/kg; bioavailability [7]: 48%
CCN(CC(O)(CNC(=O)c1cnn(-c2ccc(F)cc2)c1N)C(F)(F)F)C(=O)c1cccc(F)c1Cl (racemic),0.00794 µM,0.0501 µM,0.02 µM,92%,–
CCN(CC(O)(CNC(=O)c1cnn(-c2ccc(F)cc2)c1N)C(F)(F)F)C(=O)c1ccccc1 (racemic) [listing 2 of 2 here],–,–,–,88%,–
CCN(CC(O)(CNC(=O)c1cnn(-c2ccc(F)cc2)c1N)C(F)(F)F)C(=O)c1ccccc1 (stereo in doubt; 13c) [listing 2 of 2 here],–,–,–,94%,–
CCN(CC(O)(CNC(=O)c1cnn(-c2ccc(F)cc2)c1N)C(F)(F)F)C(=O)c1ccccc1Cl (stereo in doubt; 13d) [listing 1 of 2 here],–,–,–,–,IC50 (Cytochrome P450 2C19): 8 µM; IC50 (Cytochrome P450 1A2): 100 µM; IC50 (Cytochrome P450 2C9): 4 µM; IC50 (Cytochrome P450 3A4): 2 µM; IC50 (Cytochrome P450 2D6): 27 µM
CCN(CC(O)(CNC(=O)c1cnn(-c2ccc(F)cc2)c1N)C(F)(F)F)C(=O)c1ccccc1Cl (stereo in doubt; 13d) [listing 2 of 2 here],–,–,–,95%,–
CCN(CC(O)(CNC(=O)c1cnn(-c2ccc(F)cc2)c1N)C(F)(F)F)C(=O)c1ccccc1Cl (stereo in doubt; 13e) [listing 1 of 2 here],–,–,–,–,IC50 (Cytochrome P450 2C19): 20 µM; IC50 (Cytochrome P450 1A2): 100 µM; IC50 (Cytochrome P450 2C9): 10 µM; IC50 (Cytochrome P450 3A4): 4 µM; IC50 (Cytochrome P450 2D6): 34 µM
CCN(CC(O)(CNC(=O)c1cnn(-c2ccc(F)cc2)c1N)C(F)(F)F)C(=O)c1ccccc1Cl (stereo in doubt; 13e) [listing 2 of 2 here],–,–,–,75%,–

# Continued, in another order:
IC50 (Glucocorticoid receptor [1]),EC50 (Glucocorticoid receptor [2]),IC50 [3],Structure (SMILES),Activity (A549),also measured
0.00794 µM,0.00794 µM,0.00251 µM,CCN(CC(O)(CNC(=O)c1cnn(-c2ccc(F)cc2)c1N)C(F)(F)F)C(=O)c1c(F)cccc1F (stereo not given),104%,Activity (Albumin): 93%; IC50 (Cytochrome P450 2C19): 18 µM; clearance [5]: 27 mL/min/kg; IC50 (Cytochrome P450 1A2): 100 µM; IC50 (Cytochrome P450 2C9): 8 µM; Vd [6]: 2.8 L/kg; bioavailability [7]: 36%; IC50 (Cytochrome P450 3A4): 2 µM; fraction unbound [4]: 0.03; IC50 (Cytochrome P450 2D6): 74 µM
–,–,0.01 µM,CCN(CC(O)(CNC(=O)c1cnn(-c2ccc(F)cc2)c1N)C(F)(F)F)C(=O)c1ncccc1Cl (stereo not given) [listing 1 of 2 here],–,Activity (Albumin): 83%; IC50 (Cytochrome P450 2C19): 100 µM; IC50 (Cytochrome P450 1A2): 100 µM; IC50 (Cytochrome P450 2C9): 14 µM; IC50 (Cytochrome P450 3A4): 4 µM; fraction unbound [4]: 0.15; IC50 (Cytochrome P450 2D6): 100 µM
0.0794 µM,0.251 µM,0.0501 µM,CN(CC(O)(CNC(=O)c1cnn(-c2ccc(F)cc2)c1N)C(F)(F)F)C(=O)c1c(F)cccc1F (racemic),95%,IC50 (Cytochrome P450 2C19): 49 µM; IC50 (Cytochrome P450 1A2): 100 µM; IC50 (Cytochrome P450 2C9): 10 µM; IC50 (Cytochrome P450 3A4): 100 µM; IC50 (Cytochrome P450 2D6): 36 µM
0.398 µM,> 6.31 µM,0.316 µM,Nc1c(C(=O)NCC(O)(CNC(=O)c2c(F)cccc2F)C(F)(F)F)cnn1-c1ccc(F)cc1 (racemic),80%,–
0.0158 µM,0.0251 µM,0.0158 µM,CCCN(CC(O)(CNC(=O)c1cnn(-c2ccc(F)cc2)c1N)C(F)(F)F)C(=O)c1c(F)cccc1F (racemic),96%,clearance [5]: 36 mL/min/kg; Vd [6]: 5.3 L/kg; bioavailability [7]: 16%
0.0501 µM,0.0501 µM,–,CCN(CC(O)(CNC(=O)c1cnn(-c2ccc(F)cc2)c1N)C(F)(F)F)C(=O)c1ccccc1 (racemic) [listing 1 of 2 here],–,clearance [5]: 21 mL/min/kg; pIC50 [3]: 7.3; Vd [6]: 2.5 L/kg; bioavailability [7]: 12%
0.0501 µM,0.0251 µM,0.01 µM,CCN(CC(O)(CNC(=O)c1cnn(-c2ccc(F)cc2)c1N)C(F)(F)F)C(=O)c1c(F)cccc1S(C)(=O)=O (racemic),103%,clearance [5]: 9 mL/min/kg; Vd [6]: 2.6 L/kg; bioavailability [7]: 62%
0.00631 µM,0.0501 µM,0.0251 µM,CCN(CC(O)(CNC(=O)c1cnn(-c2ccc(F)cc2)c1N)C(F)(F)F)C(=O)c1c(Cl)cc(Cl)cc1Cl (racemic),100%,–
0.0158 µM,0.251 µM,0.0316 µM,CCN(CC(O)(CNC(=O)c1cnn(-c2ccc(F)cc2)c1N)C(F)(F)F)C(=O)c1cccc(Cl)c1 (racemic),96%,–
0.126 µM,> 6.31 µM,–,CCN(CC(O)(CNC(=O)c1cnn(-c2ccc(F)cc2)c1N)C(F)(F)F)C(=O)c1ccccc1 (stereo in doubt; 13b),–,pIC50 [3]: < 5
0.0126 µM,0.0251 µM,–,CCN(CC(O)(CNC(=O)c1cnn(-c2ccc(F)cc2)c1N)C(F)(F)F)C(=O)c1ccccc1 (stereo in doubt; 13c) [listing 1 of 2 here],–,pIC50 [3]: 8
–,–,0.01 µM,C[C@]12C=CC(=O)C=C1CC[C@@H]1[C@@H]2[C@@H](O)C[C@@]2(C)[C@H]1CC[C@]2(O)C(=O)CO [PREDNISOLONE],100%,–
